Results on 9 compounds are retold here after PubChem BioAssay AID2321 (Johns Hopkins Ion Channel Center, 2010).

Structures are written as SMILES. Active and inactive are the calls of the source. How the calls were made is not given here.

The target of this assay is Voltage-gated inwardly rectifying potassium channel KCNH2 (Homo sapiens) (UniProt Q12809). The assay can be described thus: relief of dofetilide hERG inhibition by whole-cell recording – manual patch clamp, HEK293-hERG, orthogonal assay, late-stage follow-up (AID 2321). The note with it: dofetilide block rescue, at 10 µM, active compounds read high. (hERG is a cardiac potassium channel; its block is linked to QT prolongation.)
Sequence of Voltage-gated inwardly rectifying potassium channel KCNH2 (Homo sapiens) (Q12809 whole entry, looked up): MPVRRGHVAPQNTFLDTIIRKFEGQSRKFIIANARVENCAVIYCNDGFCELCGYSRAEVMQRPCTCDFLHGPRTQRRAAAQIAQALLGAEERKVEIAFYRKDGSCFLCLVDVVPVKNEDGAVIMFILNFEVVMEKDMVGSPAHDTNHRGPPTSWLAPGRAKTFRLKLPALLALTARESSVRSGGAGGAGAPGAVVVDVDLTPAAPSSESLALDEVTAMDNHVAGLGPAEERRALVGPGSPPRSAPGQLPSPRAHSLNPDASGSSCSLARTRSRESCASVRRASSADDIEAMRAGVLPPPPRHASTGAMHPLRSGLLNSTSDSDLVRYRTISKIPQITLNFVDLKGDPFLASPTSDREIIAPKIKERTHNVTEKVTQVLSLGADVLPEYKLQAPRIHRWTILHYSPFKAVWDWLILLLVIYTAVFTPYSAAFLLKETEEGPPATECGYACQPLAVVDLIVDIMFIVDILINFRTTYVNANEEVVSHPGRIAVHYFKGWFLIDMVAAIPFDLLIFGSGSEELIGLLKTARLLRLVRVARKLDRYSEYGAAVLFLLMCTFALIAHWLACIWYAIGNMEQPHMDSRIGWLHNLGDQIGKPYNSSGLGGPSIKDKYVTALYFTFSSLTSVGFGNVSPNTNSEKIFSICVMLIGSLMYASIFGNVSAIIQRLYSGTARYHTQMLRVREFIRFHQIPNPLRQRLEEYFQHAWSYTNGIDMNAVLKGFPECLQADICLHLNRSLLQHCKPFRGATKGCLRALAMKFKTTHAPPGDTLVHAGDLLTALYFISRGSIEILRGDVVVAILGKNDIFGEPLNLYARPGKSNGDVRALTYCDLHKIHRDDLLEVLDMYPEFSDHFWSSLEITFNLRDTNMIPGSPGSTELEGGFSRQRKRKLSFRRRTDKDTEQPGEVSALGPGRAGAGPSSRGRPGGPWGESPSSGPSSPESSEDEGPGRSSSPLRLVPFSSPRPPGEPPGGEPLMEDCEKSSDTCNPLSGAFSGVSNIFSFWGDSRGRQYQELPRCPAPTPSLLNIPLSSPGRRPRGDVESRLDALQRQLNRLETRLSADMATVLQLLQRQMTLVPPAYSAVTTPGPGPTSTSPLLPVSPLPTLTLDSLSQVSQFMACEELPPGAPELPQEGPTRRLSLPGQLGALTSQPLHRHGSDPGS

For `COc1ccccc1NC(=S)NC(=O)c1ccc(-c2ccc(Cl)cc2)o1`, the percent unblocked was 0% (inactive).
The same measure for `O=C(O)c1ccccc1Nc1nc2cc(Cl)ccc2o1`: 0% (inactive).
The same measure for `Cc1ccc(C(=O)Nc2nc3ccccc3c(=O)s2)cc1`: 0% (inactive); for `O=C(O)c1ccc(Nc2nc3cc(Cl)ccc3o2)cc1`: 0% (inactive); for `Clc1ccc2oc(Nc3ccccn3)nc2c1`: 0% (inactive).
The same measure for `COc1ccc(OC)c(NC(=S)NC(=O)c2ccc(Br)o2)c1`: 0% (inactive); for `O=C(O)c1cc(Cl)ccc1Nc1nc2cc(Cl)ccc2o1`: 0% (inactive).
`CN(c1ccccc1)c1nc2cc(Cl)ccc2o1`: the percent unblocked was 0% (inactive).
The same measure for `O=C(COc1ccc2ccccc2c1Br)Nc1cccnc1`: 0% (inactive).
